According to patent US20250296942A1, “Phosphonate-Based Coordination Complexes and Methods of Preparation and Use Thereof” (University of Puerto Rico, priority 2021, published 2025):
“And” between values parts separate entries of the source, which are not always exact repeats. Equal entries are not always repeated. Where two headings read alike, the source gives them in different places.

Legend:
[1] = Hydroxyapatite (HA) binding assay of RISE and nano-Ca@RISE
Protocol: Hydroxyapatite (HA) binding assay. For the binding assay of nano-Ca@RISE, 20 mg of hydroxyapatite (HA) were exposed to 3 mL of a nano-Ca@RISE in PBS solution (0.5 mg/mL), for 0-11 days at 37° C. As control groups, RISE and HA, both in PBS, were employed. Samples were collected each day from 11 consecutive days. After each time point, the supernatant was collected and centrifuged (1,500 rpm, 8 min). […]
The capacity of nano-Ca@RISE to bind to the main constituent of the bone microenvironment, HA, under simulated physiological conditions, was evaluated through a binding assay. […]. […] […]. Therefore, a calibration curve of nano-Ca@RISE in PBS was employed for quantification of the nanocrystal's concentration in the supernatant after the binding assay.
For the nano-Ca@RISE binding assay, 20 mg of hydroxyapatite (HA), were added to 3.00 mL of nano-Ca@RISE (0.5 mg/mL) in PBS solution. HA in PBS mixture, and the binding of RISE to HA, were used as control groups. The samples were left for 0-11 days at 37° C. and 300 rpm. As a comparative method, additional binding assay for RISE “as received” was conducted employing the same parameters as for the nanocrystals. The selected time points were: 1, 2, 3, 4, 5, 7, 8, 9, 10, and 11 days. The supernatant was collected after each time point, then centrifuged (1,500 rpm, 8 min), and absorbance measurements were performed at 206 nm to determine the binding percentage of RISE from the nano-Ca@RISE to HA. FIGS. S8.6.1 and S8.6.2 illustrate the binding curves of RISE and nano-Ca@RISE to HA in PBS.

[2] = test system: human breast cancer MDA-MB-231 cell line; assay: AlamarBlue cytotoxicity, RISE and nano-Ca@RISE, MDA-MB-231; assay type: cell-based; settings: for viability at 35 µM / viability at 40 µM / viability at 45 µM / viability at 50 µM / IC50: Homo sapiens; for viability at 35 µM / viability at 40 µM / viability at 45 µM / viability at 50 µM: read-out: Relative cell viability (% RCL), MDA-MB-231
Protocol: Cell culture methods. The MDA-MB-231 cell line was incubated with DMEM, 1% Pen-Strep, and 10% FBS at 37° C. in 5% CO2. The hFOB 1.19 cell line was incubated with 1:1 DMEM:F-12, 0.3 mg/mL G418, and 10% FBS at 34° C. in 5% CO2. Cell passages were performed weekly at 80% of cell confluency, media was exchanged twice a week.
Cell treatments. Both cell lines were treated with RISE (control) and nano-Ca@RISE (experimental). […]. Both cell lines (MDA-MB-231 and hFOB 1.19) were seeded in 96 well plates at 2.5×10^5 cell/mL. The cells were incubated for 24 h at 37° C. (MDA-MB-231) and 34° C. (hFOB 1.19), respectively. After the initial incubation period, both cell lines were treated with 100 μL of the RISE solutions previously prepared, and incubation was performed for 24, 48, and 72 h at the respective incubation temperatures. For both cell lines, media (MDA-MB-231: DMEM, Pen-Strep) and (hFOB 1.19: DMEM, F-12, G418) were used with control groups. AlamarBlue® assay was utilized to determine cell proliferation, for this, 10% of AlamarBlue® solution in PBS was prepared. Finally, the media was removed from the 96 well plates, 100 μL of 10% AlamarBlue® solution was added, and the cells were incubated for 4 h at the same previously mentioned conditions. After the AlamarBlue® assay, the fluorescence (λexc=560 nm, λem=590 nm) was evaluated employing an Infinite M200 PRO Tecan Microplate Reader. […]. The nonlinear regression method using Graph Pad Prism 8 was applied to fit the dose-response curves (% cell live vs concentration) and determined the IC50 values for RISE.
[…]. Treatments at these concentrations were carried out at 24, 48, and 72 h for RISE and nano-Ca@RISE. The cell seeding and AlamarBlue® assay were completed as described above for the IC50 determination in both cell lines. […]. All experiments were performed in triplicates and the data was statistically treated using mean, standard deviation, and the coefficient of variation percentage (% CV).
Cell culture methods for the MDA-MB-231 cell line. This cell line was grown in Dulbecco's Modified Eagle's Medium (DMEM) supplemented with 10% fetal bovine serum (FBS) and 1% penicillin-streptomycin (Pen-Strep), incubated at 37° C. and 5% CO2. Cell passage and cell treatment were performed at 80% of cell confluency. The completed growth media was exchanged every two days.
Cell seeding. The MDA-MB-231 and hFOB 1.19 cell lines were seeded in 96 well plates at a density of 2.5×10^5 cells/mL, incubation was carried out for 24 h at 37° C. for MDA-MB-231 and 34° C. for osteoblast hFOB 1.19, in 5% CO2. The experiments were conducted in triplicates, three 96 well plates were made for each treatment period (24, 48, and 72 h).
Cell treatment. To determine the half-maximal inhibitory concentration (IC50), for both cell lines, two-fold serial dilutions of RISE (0-200 μM) were prepared. To assess the relative cell live (% RCL) were employed selected […] (50, 45, 40, and 35 μM) of RISE and nano-Ca@RISE for MDA-MB-231 and hFOB 1.19 cell lines. For this, after the seeding, 100 μL of RISE and nano-Ca@RISE were used to treat the cells. The control groups were treated with just media. Both cell lines were incubated for 24, 48, and 72 h after RISE and nano-Ca@RISE solutions were added.
AlamarBlue@assay. For both cell lines, after the 24, 48, and 72 h of treatment, the media was removed from the 96 well plates. Subsequently, 100 μL of 10% AlamarBlue® solution was added and incubation was carried out for 4 h. The fluorescence (λexc=570 nm, λem=590 nm) was measured employing an Infinite M200 PRO Tecan Microplate Reader. […]. The IC50 curves and the % RCL values were plotted using the Graph Pad Prism 8 program.

SMILES: O=P(O)(O)C(O)(Cc1cccnc1)P(=O)(O)O [RISE, Monosodium risedronate hemipentahydrate]
- time to reach maximum binding to HA ([1]; PBS): 8 days
- maximum binding to HA ([1]; PBS pH 7.40, 37 °C, 0-11 days): 76%
- bound to HA ([1]; PBS pH 7.40, 37 °C, 1 day): 18% and 17%
- viability at 35 µM ([2]; MDA-MB-231, 24 h, 35 μM, 24 h): 101 ± 2%
- viability at 40 µM ([2]; MDA-MB-231, 24 h, 40 μM, 24 h): 100 ± 2%
- viability at 45 µM ([2]; MDA-MB-231, 24 h, 24 h): 100 ± 2%
- viability at 50 µM ([2]; MDA-MB-231, 24 h, 24 h): 99 ± 2%
- viability at 35 µM ([2]; MDA-MB-231, 48 h, 35 μM, 48 h): 100 ± 2%
- viability at 40 µM ([2]; MDA-MB-231, 48 h, 40 μM, 48 h): 100 ± 3%
- viability at 45 µM ([2]; MDA-MB-231, 48 h, 48 h): 98 ± 2%
- viability at 50 µM ([2]; MDA-MB-231, 48 h, 48 h): 97 ± 3%
- viability at 35 µM ([2]; MDA-MB-231, 72 h, 35 μM, 72 h): ~100%
- viability at 40 µM ([2]; MDA-MB-231, 72 h, 40 μM, 72 h): 94 ± 1%
- viability at 45 µM ([2]; MDA-MB-231, 72 h, 72 h): 94 ± 2%
- viability at 50 µM ([2]; MDA-MB-231, 72 h, 72 h): 93 ± 2%
- IC50 ([2]; MDA-MB-231, 24 h): > 200 µM
- IC50 ([2]; MDA-MB-231, 48 h): 175 ± 3 µM
- IC50 ([2]; MDA-MB-231, 72 h): 98 ± 3 µM
- Relative cell viability (% RCL) ([2]; MDA-MB-231, 35 μM, 72 h): 96 ± 2%
- % RCL ([2]; MDA-MB-231, 40 μM, time not stated): ~100%
